# Active and inactive are the calls of the source. No cut-off for these calls is given here.
# Assays:
# Staphylococcus aureus = assay: Antimicrobial activity against Staphylococcus aureus at 50 ug/disk; type: functional, organism-based
# Bacillus subtilis = assay: Antimicrobial activity against Bacillus subtilis at 5 ug/disk; type: functional, organism-based
SMILES,Activity (Staphylococcus aureus),Activity (Bacillus subtilis)
C/C=C(\C)c1cc(OC)c(C)c2c1Oc1c(CO)c(O)cc(/C(C)=C/C(=O)O)c1C(=O)O2,Active,Active
C/C=C(\C)c1cc(OC)c(C)c2c1Oc1c(C=O)c(O)cc(/C(C)=C/C(=O)O)c1C(=O)O2,Active,Active

# Reference: ChEMBL document CHEMBL1158939, “Auranticins A and B: two new depsidones from a mangrove isolate of the fungus Preussia aurantiaca” (J Nat Prod, 1991)
